The values that follow come from US10604512B2, “3-(1H-indol-2-yl)-1H-indazoles and therapeutic uses thereof” (Samumed, LLC, priority 2015, dated 2020).

Common to all, as to type: cell-based
Assay [1] deals with Wnt activity (Sp5-Luc reporter, TCF/LEF binding sites) in SW480 colon carcinoma cells. The assay can be described thus: Screening assay for Wnt activity: Sp5-Luc reporter gene assay in stably transduced SW480 colon carcinoma cells. Conditions: Homo sapiens, overnight incubation, 10-point curve from 10 μM. In outline: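 SW480 cells stably transduced with a luciferase reporter driven by an Sp5 promoter of eight TCF/LEF sites were plated at 4,000 cells/well in 1% FBS medium. They were exposed overnight at 37° C to a 10-point 1:3 dilution series from 10 μM (0.1% DMSO). Luminescence was normalized to DMSO for four-parameter EC50, or percent inhibition at 10 μM.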

Assay [2] deals with primary human mesenchymal stem cells (hMSCs). The assay can be described thus: Induction of chondrogenesis in primary human mesenchymal stem cells (nodule imaging, Rhodamine B / Nile Red). On the procedure: Representative compounds were screened using primary human mesenchymal stem cells (hMSCs) to determine their ability to induce chondrogenesis (process by which cartilage is developed).
Primary human mesenchymal stem cells (hMSCs) were purchased from Lonza (Walkersville, Md.) and expanded in Mesenchymal Stem Cell Growth Media (Lonza). Cells between passage 3 and 6 were used for the experiments.
Each compound was dissolved in DMSO as a 10 mM stock and used to prepare compound source plates. For the 96 well assay, serial dilution (1:3, 6-point dose-response curves from 2700 nM to 10 nM) and compound transfer was performed using the ECHO 550 (Labcyte, Sunnyvale, Calif.) into 96-well clear bottom assay plates (Greiner Bio-One) with appropriate DMSO backfill for a final DMSO concentration of 0.03%. hMSCs were plated at 20,000 cells/well in 250 μL/well Incomplete Chondrogenic Induction Medium (Lonza; DMEM, dexamethasone, ascorbate, insulin-transferrin-selenium [ITS supplement], gentamycin-amphotericin [GA-1000], sodium pyruvate, proline and L-glutamine). TGF-β3 (10 ng/mL) was used as a positive control for differentiation while negative control wells were treated with 75 nL DMSO for normalization and calculating EC50 values. For the 384 well assay, serial dilution (1:3, 8-point dose-response curves from 5000 nM to 2.2 nM) and compound transfer was performed using the ECHO 550 (Labcyte, Sunnyvale, Calif.) into 384-well clear bottom assay plates (Greiner Bio-One) with appropriate DMSO backfill for a final DMSO concentration of 0.03%. hMSCs were plated at 8,000 cells/well in 80 μL/well Incomplete Chondrogenic Induction Medium (Lonza; DMEM, dexamethasone, ascorbate, insulin-transferrin-selenium [ITS supplement], gentamycin-amphotericin [GA-1000], sodium pyruvate, proline and L-glutamine). TGF-β3 (10 ng/mL) was used as a positive control for differentiation while negative control wells were treated with 25 nL DMSO for normalization and calculating EC50 values. Cells were incubated at 37° C. and 5% CO2 for 6 days. To image chondrogenic nodules, the cells were fixed using 4% formaldehyde (Electron Microscopy Sciences), and stained with 2 μg/mL Rhodamine B (Sigma-Aldrich) and 20 μM Nile Red (Sigma-Aldrich) [Johnson K., et. al, A Stem CellBased Approach to Cartilage Repair, Science, (2012), 336(6082), 717-721]. The nodules imaged (25 images per well for 96 well plates and 9 images per well for 384 well plates at 10× magnification) by excitation at 531 nm and emission at 625 nm and quantified using the CellInsight CX5 (Thermo Scientific). Area of nodules in each well was normalized to the average of 3 DMSO treated wells on the same plate using Excel (Microsoft Inc.). The normalized averages (fold change over DMSO) of 2 or 3 replicate wells for each compound concentration were calculated. Due to solubility limitations of some of the compounds, curve fitting was incomplete leading to inaccurate EC50 determinations.
Using TGF-β3 as a positive control, the concentration of representative compounds required to induce 50% levels of chondrogenesis is reported. In addition, the maximum activity of each compound and the respective dose that each compound reached maximum chondrogenesis activity is reported.

A further assay concerns SW480 colon cancer cells. Kind of assay: Cell viability assay (CellTiter-Blue) in SW480 colon cancer cells. Conditions: Homo sapiens, 96 h, four days, CellTiter-Blue. Put shortly: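 Approximately 2×10^3 SW480 cells per well are seeded with compound (8 points, threefold steps, top 10 μM) and incubated four days at 37 °C. CellTiter-Blue is then added for about 3 h and fluorescence read. Non-linear regression gives EC50; for values beyond 10 μM, percent inhibition at that concentration is listed.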

The subject of another assay is IL-6. The assay can be described thus: Inhibition of IL-6 in LPS-stimulated THP-1 human monocyte cells (HTRF). Conditions: IL-6 inhibition, LPS-stimulated THP-1 cells, HTRF. Put shortly: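 THP-1 cells serum-reduced (1% FBS, 24 h), then 5000 cells/well preincubated 2 h with compound (10-point 1:3 series from 10 μM, 0.1% DMSO) before 500 ng/mL LPS for 22 h at 37 °C. Secreted IL-6 quantified by HTRF 665/620 ratio; DMSO-normalised duplicates fitted to four-parameter EC50; above 10 μM, % inhibition at 10 μM given.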

In assay [3] the test system is Primary human fibroblasts derived from IPF patients (LL29 cells) treated with TGF-β1. Kind of assay: Inhibition of the fibrotic process: αSMA staining in TGF-β1-treated primary human fibroblasts from IPF patients (LL29 cells). Conditions: Fibroblast, 96 h, % αSMA-positive LL29 cells, TGF-β1 20 ng/mL, 4 days. Put shortly: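 LL29 IPF-patient fibroblasts in 1% FBS stimulated with TGF-β1 (20 ng/mL) and compound (10 μM–1.87 nM, 0.1% DMSO) for 4 days at 37 °C. SYTOX-positive cells excluded; % αSMA-positive cells imaged, normalized to TGF-β1/DMSO wells; EC50 by nonlinear regression, else % inhibition at 10 μM.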

For the compound `COc1cncc(-c2ccc3[nH]nc(-c4cc5c(-c6ccoc6)cccc5[nH]4)c3c2)c1` [Compound 720, 3-(4-(Furan-3-yl)-1H-indol-2-yl)-5-(5-methoxypyridin-3-yl)-1H-indazole], the EC50 turned out to be 588 nM in assay [1]; 10 nM in assay [2] (concentration required to induce 50% levels of chondrogenesis vs TGF-β3 positive control, read-out: Conc (nM) of 50% TGF-β3 activity); 1400 nM with SW480 colon cancer cells; 329 nM in the assay on IL-6. Besides, in assay [2] (maximum chondrogenesis activity relative to TGF-β3 (10 ng/mL) positive control, read-out: Max. Activity as % TGF-β3 activity), the Emax came out at 151%.
Consider `CN(C)Cc1cncc(-c2ccc3[nH]nc(-c4cc5c(-c6cc(F)cc(CNS(C)(=O)=O)c6)cccc5[nH]4)c3c2)c1` [Compound 489, N-(3-(2-(5-(5-((Dimethylamino)methyl)pyridin-3-yl)-1H-indazol-3-yl)-1H-indol-4-yl)-5-fluorobenzyl)methanesulfonamide], for which the EC50 in assay [1] amounted to 120 nM; in assay [3], 406 nM; in the assay on SW480 colon cancer cells, 568 nM; in the assay on IL-6 it was 1060 nM.
For `CN(C)CCOc1cncc(-c2ccc3[nH]nc(-c4cc5c(-c6ccoc6)cccc5[nH]4)c3c2)c1` [Compound 719, 2-((5-(3-(4-(Furan-3-yl)-1H-indol-2-yl)-1H-indazol-5-yl)pyridin-3-yl)oxy)-N,N-dimethylethan-1-amine], the EC50 in assay [1] was 680 nM; in assay [3] it was 1950 nM; with SW480 colon cancer cells, 1370 nM; with IL-6, 1710 nM.
Consider `Cc1ccncc1-c1ccc2[nH]nc(-c3cc4c(-c5cc(F)cc(CNS(C)(=O)=O)c5)cccc4[nH]3)c2c1` [Compound 481, N-(3-Fluoro-5-(2-(5-(4-methylpyridin-3-yl)-1H-indazol-3-yl)-1H-indol-4-yl)benzyl)methanesulfonamide], for which the EC50 in assay [1] is 105 nM; in assay [3], 156 nM; in the assay on SW480 colon cancer cells, 891 nM; in the assay on IL-6 it was 122 nM.
Turning to `CN(C)CCNc1cc(F)cc(-c2cccc3[nH]c(-c4n[nH]c5ccc(-c6cncc(N7CC(N)C7)n6)cc45)cc23)c1` [Compound 810, N^1-(3-(2-(5-(6-(3-Aminoazetidin-1-yl)pyrazin-2-yl)-1H-indazol-3-yl)-1H-indol-4-yl)-5-fluorophenyl)-N^2,N^2-dimethylethane-1,2-diamine], the EC50 came out at 224 nM in assay [1], 653 nM in assay [3], 458 nM in the assay with SW480 colon cancer cells and 77 nM in the assay on IL-6.
For the compound `FC1(F)CCN(Cc2cncc(-c3ccc4[nH]nc(-c5cc6c(-c7ccoc7)cccc6[nH]5)c4c3)c2)C1` [Compound 334, 5-(5-((3,3-Difluoropyrrolidin-1-yl)methyl)pyridin-3-yl)-3-(4-(furan-3-yl)-1H-indol-2-yl)-1H-indazole], the EC50 was found to be 182 nM in assay [1], 154 nM in assay [3], 470 nM in the assay on SW480 colon cancer cells and 475 nM in the assay with IL-6.
Turning to `Cn1cc(-c2ccc3[nH]nc(-c4cc5c(-c6cccnc6)cccc5[nH]4)c3c2)cn1` [Compound 584, 5-(1-Methyl-1H-pyrazol-4-yl)-3-(4-(pyridin-3-yl)-1H-indol-2-yl)-1H-indazole], the EC50 in assay [1] was found to be 150 nM; in assay [3], 6820 nM; in the assay with SW480 colon cancer cells, 949 nM; in the assay with IL-6, 12 nM.
For `CN(C)CCNc1cc(F)cc(-c2cccc3[nH]c(-c4n[nH]c5ccc(-c6cncc(NC(=O)C7CCCCC7)c6)cc45)cc23)c1` [Compound 471, N-(5-(3-(4-(3-((2-(Dimethylamino)ethyl)amino)-5-fluorophenyl)-1H-indol-2-yl)-1H-indazol-5-yl)pyridin-3-yl)cyclohexanecarboxamide] the same measures were 689 nM, 1420 nM, 1380 nM and 731 nM.
Consider `Nc1cncc(-c2ccc3[nH]nc(-c4cc5c(-c6ccsc6)cccc5[nH]4)c3c2)c1` [Compound 283, 5-(3-(4-(Thiophen-3-yl)-1H-indol-2-yl)-1H-indazol-5-yl)pyridin-3-amine], for which the EC50 in assay [1] came to 40 nM; in assay [3], 809 nM; in the assay with SW480 colon cancer cells, 111 nM; in the assay on IL-6, 180 nM.
As to `CC(C)CC(=O)Nc1cncc(-c2ccc3[nH]nc(-c4cc5c(-c6ccccn6)cccc5[nH]4)c3c2)c1` [Compound 142, 3-Methyl-N-(5-(3-(4-(pyridin-2-yl)-1H-indol-2-yl)-1H-indazol-5-yl)pyridin-3-yl)butanamide], the EC50 was 185 nM in assay [1], 312 nM in assay [3], 918 nM in the assay on SW480 colon cancer cells and 164 nM in the assay with IL-6.
As for `CC(C)(C)C(=O)Nc1cncc(-c2ccc3[nH]nc(-c4cc5c(-c6cccnc6)cccc5[nH]4)c3c2)c1` [Compound 92, N-(5-(3-(4-(Pyridin-3-yl)-1H-indol-2-yl)-1H-indazol-5-yl)pyridin-3-yl) pivalamide], the EC50 in assay [1] came out at 140 nM; in assay [3], 612 nM; in the assay with SW480 colon cancer cells, 1320 nM; in the assay with IL-6 it was 153 nM.
Turning to `Cc1ccncc1-c1ccc2[nH]nc(-c3cc4c(-c5cc(F)cc(NCCN(C)C)c5)cccc4[nH]3)c2c1` [Compound 453, N^1-(3-Fluoro-5-(2-(5-(4-methylpyridin-3-yl)-1H-indazol-3-yl)-1H-indol-4-yl)phenyl)-N^2,N^2-dimethylethane-1,2-diamine], the EC50 was found to be 263 nM in assay [1], 1760 nM in assay [3], 640 nM with SW480 colon cancer cells and 244 nM in the assay with IL-6.
Take `c1ccc(CNCc2cncc(-c3ccc4[nH]nc(-c5cc6c(-c7ccccn7)cccc6[nH]5)c4c3)c2)cc1` [Compound 164, N-Benzyl-1-(5-(3-(4-(pyridin-2-yl)-1H-indol-2-yl)-1H-indazol-5-yl)pyridin-3-yl)methanamine]: the EC50 in assay [1] amounted to 564 nM; in assay [3], 191 nM; in the assay with SW480 colon cancer cells it was 2290 nM; in the assay with IL-6, 214 nM.
